Measurements: patent US11992497B2 (priority 2021, dated 2024)

What was measured:
[1] = target: T1, rUGT1A9 (Homo sapiens, UniProt O60656); experiment: Inhibition of CBG glucuronidation by Compound 1; format: biochemical; conditions: for CBG detected, Percent of control / CBG glucuronide formed, Percent of control: rUGT1A9; for CBG detected / CBG glucuronide formed: rUGT1A9, 4 min
T1 sequence (O60656 26-530): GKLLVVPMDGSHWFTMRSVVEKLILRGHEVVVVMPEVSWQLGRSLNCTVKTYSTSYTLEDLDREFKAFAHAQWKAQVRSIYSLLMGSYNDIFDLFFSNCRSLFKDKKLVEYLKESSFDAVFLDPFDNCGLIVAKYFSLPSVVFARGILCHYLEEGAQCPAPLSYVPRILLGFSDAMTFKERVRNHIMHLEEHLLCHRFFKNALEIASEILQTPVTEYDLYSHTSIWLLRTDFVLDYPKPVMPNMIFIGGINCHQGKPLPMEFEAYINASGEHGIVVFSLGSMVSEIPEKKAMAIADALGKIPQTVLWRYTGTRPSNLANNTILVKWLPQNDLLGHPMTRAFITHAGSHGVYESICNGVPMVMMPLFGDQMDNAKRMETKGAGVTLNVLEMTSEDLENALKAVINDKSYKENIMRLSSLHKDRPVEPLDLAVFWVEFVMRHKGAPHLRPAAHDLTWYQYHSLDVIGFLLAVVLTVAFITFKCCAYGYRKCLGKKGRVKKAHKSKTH
Protocol: (§1) The purpose of this experiment was to determine if Compound 1 can inhibit the glucuronidation of CBG, as both are substrates for the two major isoforms responsible for CBG glucuronidation.
(§2) The ability of Compound 1 to inhibit the metabolism of CBG by UGT1A9 and UGT2B7 enzymes was investigated to ascertain the ICso values for direct inhibition. The incubation conditions (substrate concentration, incubation time and protein concentration) were determined in Part 2 of the protocol such that CBG metabolism remains near initial rate conditions (e.g., 20-30% substrate loss).
(§3) Preliminary experiments were conducted in Part I of the protocol, first to establish the HPLC/MS/MS bioanalytical methods for CBG and CBG glucuronide. […] The second set of preliminary experiments (Part 2), as mentioned, were conducted to optimize the incubation conditions as described above. Incubations (at 37 C) contained Tris-HCl buffer (100 mM, pH 7.7), MgCl2 (10 mM), EDTA (1 mM, pH 7.4) and UDP-glucuronic acid (UDPGA, 10 mM). CBG was added to each incubation in DMSO such that the final percent of DMSO was 1% v/v, or less. Reactions were terminated by the addition of an equal volume of stop reagent, acetonitrile containing an internal standard. The samples were centrifuged (e.g., 920 RCF for 10 minutes at 10° C.), and the supernatant fractions were analyzed by LC-MS/MS to determine the amount of CBG remaining and formation of one metabolite (CBG glucuronide).
(§4) To examine its ability to act as a direct inhibitor of the above listed enzymes, Compound 1 was be added to recombinant human UGT enzyme together with CBG. Reactions were initiated with UDPGA and were carried out in duplicate. For all assays, reactions were terminated by the addition of acetonitrile with or without 2% v/v formic acid, including the internal standard.
(§5) Authentic metabolite reference standards were used for quantitation of the probe substrate metabolites and as internal standards. Based on the information obtained in the Part 2 experiments, the following table summarizes the experiments performed, assessing the inhibitory effects of Compound 1 was conducted as follows:
(§6) The amounts of CBG present at the end of the incubation periods was determined. For inhibition to have occurred, the amounts of CBG present at the end of the incubation period needed to increase, and the amounts of glucuronide formed needed to decrease.

[2] = target: T2, rUGT2B7 (Homo sapiens, UniProt P16662); experiment: Inhibition of CBG glucuronidation by Compound 1; format: biochemical; conditions: for CBG detected, Percent of control / CBG glucuronide formed, Percent of control: rUGT2B7; for CBG detected / CBG glucuronide formed: rUGT2B7, 5 min
T2 sequence (P16662 24-529): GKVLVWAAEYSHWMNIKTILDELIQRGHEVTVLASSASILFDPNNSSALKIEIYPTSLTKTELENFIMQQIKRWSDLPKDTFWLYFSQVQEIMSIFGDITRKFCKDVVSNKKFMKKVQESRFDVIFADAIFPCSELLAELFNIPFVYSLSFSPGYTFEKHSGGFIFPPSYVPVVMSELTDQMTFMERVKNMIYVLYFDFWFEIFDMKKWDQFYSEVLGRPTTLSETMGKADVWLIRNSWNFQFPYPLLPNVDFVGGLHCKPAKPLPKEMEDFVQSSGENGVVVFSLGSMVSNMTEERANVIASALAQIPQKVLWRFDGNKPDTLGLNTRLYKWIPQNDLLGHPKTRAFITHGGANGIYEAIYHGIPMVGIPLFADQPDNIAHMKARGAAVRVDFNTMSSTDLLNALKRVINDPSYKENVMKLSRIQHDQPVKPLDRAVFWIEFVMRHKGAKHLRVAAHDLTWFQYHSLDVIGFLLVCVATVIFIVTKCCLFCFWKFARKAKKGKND
Protocol: as §1, §2, §3, §4, §5, §6

SMILES: CCCCCc1cc(O)c(C/C=C(\C)CCC=C(C)C)c(OC)c1 [Compound 1, (E)-2-(3,7-dimethylocta-2,6-dien-1-yl)-3-methoxy-5-pentylphenol]
- CBG detected, Percent of control ([1]; 10 μM CBG + 0.01 μM Compound 1): 109% of control
- CBG glucuronide formed, Percent of control ([1]; 10 μM CBG + 0.01 μM Compound 1): 94.4% of control
- CBG detected ([1]; 10 μM CBG + 0.01 μM Compound 1): 1250 pmol
- CBG glucuronide formed ([1]; 10 μM CBG + 0.01 μM Compound 1): 350000 area ratio
- CBG detected, Percent of control ([1]; 10 μM CBG + 0.03 μM Compound 1): 110% of control
- CBG glucuronide formed, Percent of control ([1]; 10 μM CBG + 0.03 μM Compound 1): 97.1% of control
- CBG detected ([1]; 10 μM CBG + 0.03 μM Compound 1): 1250 pmol
- CBG glucuronide formed ([1]; 10 μM CBG + 0.03 μM Compound 1): 360000 area ratio
- CBG detected, Percent of control ([1]; 10 μM CBG + 0.1 μM Compound 1): 112% of control
- CBG glucuronide formed, Percent of control ([1]; 10 μM CBG + 0.1 μM Compound 1): 92.0% of control
- CBG detected ([1]; 10 μM CBG + 0.1 μM Compound 1): 1280 pmol
- CBG glucuronide formed ([1]; 10 μM CBG + 0.1 μM Compound 1): 341000 area ratio
- CBG detected, Percent of control ([1]; 10 μM CBG + 0.3 μM Compound 1): 114% of control
- CBG glucuronide formed, Percent of control ([1]; 10 μM CBG + 0.3 μM Compound 1): 94.4% of control
- CBG detected ([1]; 10 μM CBG + 0.3 μM Compound 1): 1300 pmol
- CBG glucuronide formed ([1]; 10 μM CBG + 0.3 μM Compound 1): 350000 area ratio
- CBG detected, Percent of control ([1]; 10 μM CBG + 1 μM Compound 1): 106% of control
- CBG glucuronide formed, Percent of control ([1]; 10 μM CBG + 1 μM Compound 1): 92.6% of control
- CBG detected ([1]; 10 μM CBG + 1 μM Compound 1): 1210 pmol
- CBG glucuronide formed ([1]; 10 μM CBG + 1 μM Compound 1): 343000 area ratio
- CBG detected, Percent of control ([1]; 10 μM CBG + 3 μM Compound 1): 105% of control
- CBG glucuronide formed, Percent of control ([1]; 10 μM CBG + 3 μM Compound 1): 93.6% of control
- CBG detected ([1]; 10 μM CBG + 3 μM Compound 1): 1200 pmol
- CBG glucuronide formed ([1]; 10 μM CBG + 3 μM Compound 1): 347000 area ratio
- CBG detected, Percent of control ([1]; 10 μM CBG + 10 μM Compound 1): 99.8% of control
- CBG glucuronide formed, Percent of control ([1]; 10 μM CBG + 10 μM Compound 1): 92.8% of control
- CBG detected ([1]; 10 μM CBG + 10 μM Compound 1): 1140 pmol
- CBG glucuronide formed ([1]; 10 μM CBG + 10 μM Compound 1): 344000 area ratio
- inhibition of the conversion of CBG to a glucuronide (in words) ([1]; UGT1A9, 0.01-10 μM Compound 1): not an effective inhibitor
- CBG detected, Percent of control ([2]; 10 μM CBG + 0.01 μM Compound 1): 103% of control
- CBG glucuronide formed, Percent of control ([2]; 10 μM CBG + 0.01 μM Compound 1): 104% of control
- CBG detected ([2]; 10 μM CBG + 0.01 μM Compound 1): 1370 pmol
- CBG glucuronide formed ([2]; 10 μM CBG + 0.01 μM Compound 1): 260000 area ratio
- CBG detected, Percent of control ([2]; 10 μM CBG + 0.03 μM Compound 1): 109% of control
- CBG glucuronide formed, Percent of control ([2]; 10 μM CBG + 0.03 μM Compound 1): 101% of control
- CBG detected ([2]; 10 μM CBG + 0.03 μM Compound 1): 1460 pmol
- CBG glucuronide formed ([2]; 10 μM CBG + 0.03 μM Compound 1): 252000 area ratio
- CBG detected, Percent of control ([2]; 10 μM CBG + 0.1 μM Compound 1): 106% of control
- CBG glucuronide formed, Percent of control ([2]; 10 μM CBG + 0.1 μM Compound 1): 103% of control
- CBG detected ([2]; 10 μM CBG + 0.1 μM Compound 1): 1410 pmol
- CBG glucuronide formed ([2]; 10 μM CBG + 0.1 μM Compound 1): 257000 area ratio
- CBG detected, Percent of control ([2]; 10 μM CBG + 0.3 μM Compound 1): 109% of control
- CBG glucuronide formed, Percent of control ([2]; 10 μM CBG + 0.3 μM Compound 1): 105% of control
- CBG detected ([2]; 10 μM CBG + 0.3 μM Compound 1): 1450 pmol
- CBG glucuronide formed ([2]; 10 μM CBG + 0.3 μM Compound 1): 262000 area ratio
- CBG detected, Percent of control ([2]; 10 μM CBG + 1 μM Compound 1): 109% of control
- CBG glucuronide formed, Percent of control ([2]; 10 μM CBG + 1 μM Compound 1): 102% of control
- CBG detected ([2]; 10 μM CBG + 1 μM Compound 1): 1460 pmol
- CBG glucuronide formed ([2]; 10 μM CBG + 1 μM Compound 1): 253000 area ratio
- CBG detected, Percent of control ([2]; 10 μM CBG + 3 μM Compound 1): 108% of control
- CBG glucuronide formed, Percent of control ([2]; 10 μM CBG + 3 μM Compound 1): 101% of control
- CBG detected ([2]; 10 μM CBG + 3 μM Compound 1): 1440 pmol
- CBG glucuronide formed ([2]; 10 μM CBG + 3 μM Compound 1): 252000 area ratio
- CBG detected, Percent of control ([2]; 10 μM CBG + 10 μM Compound 1): 111% of control
- CBG glucuronide formed, Percent of control ([2]; 10 μM CBG + 10 μM Compound 1): 96.0% of control
- CBG detected ([2]; 10 μM CBG + 10 μM Compound 1): 1470 pmol
- CBG glucuronide formed ([2]; 10 μM CBG + 10 μM Compound 1): 239000 area ratio
- inhibition of the conversion of CBG to a glucuronide (in words) ([2]; UGT2B7, 0.01-10 μM Compound 1): not an effective inhibitor
